Here are results for 2 compounds from patent US20250320190A1, “Novel Inhibitors of Leucine Carboxyl Methyltransferase-1 (LCMT-1) and Methods of Use Thereof” (Temple University-Of The Commonwealth System of Higher …, priority 2024, published 2025).

In brackets after ≈: the same amount, converted by molar mass. A value given as a limit tells only on which side of the number the result lay.

A short description of data set [1]: Liver microsomal stability. It is filed as in vitro ADME. From the text:
(§1) There is no cause for concern at this stage since there are multiple strategies and reagents for enhancing aqueous solubility for animal in vivo studies (Savjani, K. T., A. K. Gajjar and J. K. Savjani, 2012, ISRN Pharm 2012: 195727.). […] While target tissue exposure is dependent on free, unbound fractions in the plasma, plasma protein binding can protect compounds from hepatic metabolism. Thus, in vivo metabolism and excretion are often determined by a balance between these two properties. In vivo half-life is a complicated property impacted upon by multiple factors and is difficult to predict. […] While these numbers are somewhat low for a drug candidate, they are acceptable for proof of concept tool molecules which can be given multiple times per day and at higher doses to saturate metabolism.
A general note: Liver microsomes are vesicles of endoplasmic reticulum, rich in cytochrome P450 enzymes.

A further data set in a line: Plasma protein binding. The class given is in vitro ADME. To be noted: read-out: Plasma Protein Binding (bound fraction) (converted).
Excerpt: as §1

For another data set, the target named is T1, rhLCMT-1 (Homo sapiens, UniProt Q9UIC8).
T1 construct: purchased SignalChem (Richmond, British Columbia, Canada)
T1 sequence (Q9UIC8 whole entry): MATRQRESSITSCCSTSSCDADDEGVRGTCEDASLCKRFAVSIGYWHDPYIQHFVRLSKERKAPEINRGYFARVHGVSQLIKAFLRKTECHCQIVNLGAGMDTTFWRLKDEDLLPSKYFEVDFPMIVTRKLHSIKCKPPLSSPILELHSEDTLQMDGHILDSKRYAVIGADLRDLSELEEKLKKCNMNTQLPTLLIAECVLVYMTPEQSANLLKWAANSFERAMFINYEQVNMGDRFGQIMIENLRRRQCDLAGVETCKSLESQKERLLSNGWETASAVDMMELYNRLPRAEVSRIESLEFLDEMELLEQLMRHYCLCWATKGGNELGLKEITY
Put plainly: rhLCMT-1 activity assay (dot immunoblot). The class given is biochemical. The settings on record: each inhibitor 50 μM; 20 μM SAM; 37° C. for 30 minutes. How it is done:
Recombinant human LCMT-1 (rhLCMT-1) and rhPP2Ac were obtained from SignalChem (Richmond, British Columbia, Canada). Methyltransferase assays were performed with 100 ng rhLCMT-1 and 91.62 ng rhPP2Ac (2:1 molar ratio) (28) in reaction buffer containing 20 mM Tris (pH 8.0), 50 mM NaCl, 1 mM EDTA. rhLCMT-1 was incubated with Compound 1 (Chemspace, San Jose, California), Compound 2 (Akos Consulting and Solutions, Amtsgericht, Freiburg, Germany) or sinefungin, a SAM analogue, (Active Motif, Carlsbad, California), each at 50 μM final concentration, for 10 minutes at room temperature. rhPP2Ac was added to the reactions with 20 μM (final concentration) SAM (New England Biolabs, Ipswich, Massachusetts, FIG. 9). […] Reactions were incubated at 37° C. for 30 minutes (FIG. 10). Because the inhibitors gave false positive results with the secondary reactions used in colorimetric and bioluminescent methyltansferase assays, LCMT-1 activity was assessed using dot immunoblots. Reactions were applied to nitrocellulose membranes (Cytiva, Marlborough, Massachusetts). […] Membranes were treated with infrared (IR)-dye anti-mouse antibody (Li-Cor, Lincoln, Nebraska, catalog #926-32210, 1:20,000 dilution) and densities were measured with Li-Cor Image Studio (version 5.2) software. rhLCMT-1 inhibition assays were performed three times, each time with five replicates for each condition.

Another data set in a line: Kinetic solubility. To be noted: 2% dimethylsulfoxide/PBS, aqueous buffer, kinetic from dmso stock; read-out: Max. Kinetic Solubility. It is filed as physicochemical.
Excerpt: as §1

A short description of the next data set: Plasma stability. The settings on record: mouse plasma; read-out: Plasma Stability (t1/2). It is filed as in vitro ADME.
Excerpt: as §1

Data set [2] has as its system Rosi cells. Put plainly: Western blots. It is filed as cell-based, human. The settings on record: 20 μM, Compound 2 significant at 6 hours. How it is done:
(§2) MCF7, MDA-MB-231 and Rosi cells were treated with Compound 1 or Compound 2 at a concentration of 20 μM in complete medium, and lysates were harvested after 2, 4, 6, 8 and 12 hours in radioimmunoprecipitation assay buffer containing protease inhibitors (Boster Bio, Pleasanton, California, catalog #AR1182-1) and phosphatase inhibitors (Santa Cruz Biotechnology catalog #sc-45044 and #sc-45045). Protein concentrations were measured with a bicinchoninic acid assay (G-Biosciences, Saint Louis, Missouri). Fifty micrograms of each lysate were used for bis-tris polyacrylamide gel electrophoresis. Resolved lysates were transferred to nitrocellulose membranes. Membranes were blocked with TBS with 5% bovine serum albumin before incubation with primary antibodies.
(§3) Antibodies obtained from Cell Signaling Technology (Danvers Massachusetts) were, anti-PP2Ac (catalog #2038, 1:1,000 dilution), anti-phospho-adenosine monophosphate-activated protein kinase (pAMPKα2 threonine 172, catalog #2535, 1:1,000 dilution). Antibodies obtained from Proteintech (Rosemont, Illinois) include anti-phospho-receptor-interacting serine/threonine protein kinase-1 antibodies (pRIPK1 serine 161 (catalog #66854-1-Ig, 1:1,000 dilution) and pRIPK1 serine 166 (catalog #28252-1-AP, 1:10,000 dilution), anti-mixed lineage kinase domain like pseudokinase (MLKL, catalog #66675-1-Ig, 1:5,000 dilution), anti-AMPKα2, anti-phospho-acetyl-coenzyme A carboxylase (pACC1 serine 79, catalog #29119-1-AP, 1:1,000 dilution), anti-ACC1 (catalog #21923-1-AP, 1:2,000 dilution) and anti-β-actin (catalog #66009-1-Ig, 1:50,000 dilution). The anti-RIPKI antibody was obtained from AbClonal (Woburn, Massachusetts, catalog #A7414, 1:750 dilution). The anti-phospho-MLKL antibody was obtained from R&D Systems (Minneapolis, Minnesota, 1:1,000 dilution). The LCMT-1 antibody was obtained from Origene (Rockville, Maryland, catalog #TA503127S, 1:2,000 dilution). Appropriate IR-dye secondary antibodies were used (Alexa Fluor® 790-conjugated anti-mouse (catalog #115-655-146, 1:50,000 dilution), Alexa Fluor® 680-conjugated anti-mouse (catalog #115-625-146, 1:50,000 dilution), and Alexa Fluor® 680-conjugated anti-rabbit (catalog #115-625-144, 1:50,000 dilution) were obtained from Jackson ImmunoResearch Laboratories (West Grove, Pennsylvania). Band densities were normalized to β-actin, the endogenous control. At least five replicates were used for statistical analyses.
On the technique in general: Immunoblotting shows a protein as a band on a membrane.

For data set [3], the system named is MCF7 cells. Put plainly: Western blots. The class given is cell-based, human. To be noted: 20 μM, lysates after 2, 4, 6, 8 and 12 hours. How it is done: as §2, §3
For data set [4], the system named is MDA-MB-231 cells. Put plainly: Western blots. It is filed as cell-based, human. To be noted: 20 μM, Compound 2 significant at 4 hours. The procedure:
as §2, §3

Data set [5] has as its system Rosi cells. Put plainly: Colony forming assay. To be noted: 50-3.25 μM, one week. It is filed as cell-based, human. The procedure:
(§4) MCF7, MDA-MB-231 and Rosi cells were seeded in 96-well tissue culture plates (Celltreat, Pepperell, Massachusetts) at a density of 90 cells per well (Mayr et al. Int J Mol Sci. 2018; 19(3)). After 24 hours, the media were changed to media containing LB-100 or Compound 2 at various concentrations (50-3.25 μM). Control cells were given fresh media. After one week the media were aspirated and the wells were washed with PBS. Cells were stained with crystal violet solution (0.25 g crystal violet in 20% methanol) for 10 minutes. The wells were washed 6 times with PBS to remove excess crystal violet. Colonies were counted with an ECHO Revolve hybrid microscope at 1.5× magnification. There were ten replicates for each condition.

The test system of data set [6] is MCF7 cells. Put plainly: Colony forming assay. It is filed as cell-based, human. The settings on record: 50-3.25 μM, one week. How it is done: as §4
Data set [7] relates to MDA-MB-231 cells. Put plainly: Colony forming assay. It is filed as cell-based, human. The settings on record: 50-3.25 μM, one week. How it is done:
as §4

Another data set has as its system HEK-293 cells. Put plainly: Cytotoxicity assay (calcein-AM). It is filed as cell-based. How it is done:
(§5) HS-5, HEK-293, MCF7, MDA-MB-231 and Rosi cells were seeded in 96-well optical bottom tissue culture plates (Corning, New York) at a density of 2.5×10^3 cells/well. After 24 hours, the media were changed to media containing LB-100 (Cayman Chemical Company, Ann Arbor, Michigan) or Compound 2 at various concentrations (50-0.31 μM). Control cells were given fresh media. After 48 hours the media were aspirated and plates were washed with warmed Dulbecco's phosphate-buffered saline (DPBS) with calcium and magnesium (Sigma-Aldrich, catalog #D1283). Cells were stained with 3 μM calcein-AM (AAT Bioquest, Pleasanton, California, catalog #22002) in DPBS for 30 minutes in the dark at 37° C. Plates were immediately read with a Biotek fluorescent plate reader (excitation 485 nm, emission 520 nm). The cytotoxicity assays were performed at least three times, each time with six replicates per condition.

The subject of the next data set is HS-5 cells. Put plainly: Cytotoxicity assay (calcein-AM). It is filed as cell-based. The procedure:
as §5

The subject of data set [8] is Rosi cells. Put plainly: Cytotoxicity assay (calcein-AM). It is filed as cell-based, human. The procedure: as §5, with “After 24 hours, the media were changed to media containing LB-100 (Cayman Chemical Company, Ann Arbor, Michigan) or Compound 2 at various concentrations (50-0.31 μM).” left out
For data set [9], the system named is Rosi cells. Put plainly: Annexin V assay. It is filed as cell-based, human. To be noted: 5-20 μM, 48 hours. How it is done:
(§6) MCF7, MDA-MB-231 and Rosi cells were treated with LB-100 and Compound 2 at 5-20 μM concentrations. After 48 hours, cells were lifted with Accutase and washed twice with PBS (pH 7.4) with 10% FBS. Cells were resuspended in annexin V binding buffer (10 mM HEPES (pH 7.4), 140 mM NaCl and 2.5 mM CaCl2)) and labeled with FITC-anti-Annexin V and 7-AAD (Biolegend, FITC Annexin V Apoptosis Detection Kit with 7-AAD, catalog #640922). Cell surface annexin V expression was assessed with flow cytometry.

The subject of data set [10] is MDA-MB-231 cells. Put plainly: Annexin V assay. The class given is cell-based, human. To be noted: 5-20 μM, 48 hours. The procedure: as §6
Data set [11] has as its system MCF7 cells. Put plainly: Cytotoxicity assay (calcein-AM). The class given is cell-based, human. The procedure: as §5
The test system of data set [12] is MDA-MB-231 cells. Put plainly: Cytotoxicity assay (calcein-AM). The class given is cell-based, human. To be noted: Homo sapiens, MDA-MB-231, 48 h, read-out: Log [μM] EC50 (converted). The procedure: as §5
Data set [13] concerns Rosi cells. Put plainly: Cell cycle analysis (BrdU flow cytometry). It is filed as cell-based, human. The settings on record: 20 μM, 24 hours. The procedure:
(§7) MCF7, MDA-MB-231 and Rosi cells were seeded in 6-well tissue culture plates (Celltreat) at a density of 5×10^5 cells per well. After 24 hours, the DMEM was changed to media containing 20 μM LB-100 or Compound 2. Control cells were given fresh media. After 24 hours, cells were labeled with 50 μM bromodeoxyuridine (BrdU, BioGems, Westlake Village, California, catalog #5911439). Cells were lifted with 0.25% trypsin, 2.21 mM ethylenediaminetetraacetic acid (Corning catalog #25-053-CI) after 4 hours and fixed with 70% ethanol overnight at 4° C. Cells were pelleted and cellular DNA was denatured with HCl. After neutralization with 1 M Tris, pH 8.5, cells were labeled with FITC-anti-BrdU (Biolegend, San Diego, California, catalog #364104, 5 μL/100 μL cell suspension) and 7-aminoactinomycin-D (7-AAD, Biolegend, catalog #420404, 1 μL/100 μL cell suspension). Cells were analyzed with a Becton-Dickinson FACSymphony™ flow cytometer. Cell cycle analyses were performed three times.
In general terms: Flow cytometry measures light scatter and fluorescence of single cells or particles in a stream.

Data set [14] relates to MCF7 cells. Put plainly: Cell cycle analysis (BrdU flow cytometry). The class given is cell-based, human. To be noted: 20 μM, 24 hours. How it is done: as §7
Data set [15] concerns MDA-MB-231 cells. Put plainly: Cell cycle analysis (BrdU flow cytometry). The class given is cell-based, human. To be noted: 20 μM, 24 hours. The procedure: as §7

As a reminder, the solubility (kinetic) is solubility judged after dilution from a stock solution rather than from solid. For the compound `O=C(COc1cccc2ccccc12)Nc1ccccc1O` [Compound 1, N-(2-Hydroxyphenyl)-2-(1-naphthalenyloxy)acetamide], the half-life in data set [1] (human liver microsomes, read-out: Liver Microsomal Stability (t1/2) Human) is 45.7 min; in data set [1] (mouse liver microsomes, read-out: Liver Microsomal Stability (t1/2) Mouse), 20 min; in the data set “Plasma stability”, > 180 min. For the same compound, the fraction unbound in the data set “Plasma protein binding” was 0.033. The “methylation of rhPP2Ac by rhLCMT-1” value on rhLCMT-1 is reported as “did not significantly inhibit PP2Ac methylation”. In addition, the kinetic solubility in the data set “Kinetic solubility” was 27.1 µM (≈ 7.95 µg/mL). Also, the PP2Ac methylation result with Rosi cells [2], in the data set on MCF7 cells [3] and in the data set on MDA-MB-231 cells [4] was “did not increase PP2Ac methylation” in each case.
Usually EC50 stands for the concentration at which the effect is half-maximal. As for `CN1CCN(C(=O)C2C(C(=O)O)[C@H]3CC[C@@H]2O3)CC1` (some centres unmarked) [LB-100, reference compound], the clonogenic colony formation result is on record as “inhibited colony formation” with Rosi cells [5], “inhibited to a lesser extent” in the data set on MCF7 cells [6] and “inhibited colony formation” in the data set on MDA-MB-231 cells [7]. For the same compound, the “concentration at which survival was significantly inhibited” value with HEK-293 cells (HEK-293, 48 hours) was 20 µM; with Rosi cells [8] (Rosi, 48 hours) it was 20 µM. For the same compound, the half-maximal effective concentration (EC50) is 21.4 µM with HEK-293 cells (Homo sapiens, HEK293, 48 h, read-out: Log [μM] EC50 (converted)); 36.3 µM in the data set on HS-5 cells (HS5, 48 h, read-out: Log [μM] EC50 (converted)); 21900 µM in the data set on Rosi cells [8] (Homo sapiens, 48 h, read-out: Log [μM] EC50 (converted)); 45.7 µM with MCF7 cells [11] (Homo sapiens, MCF7, 48 h, read-out: Log [μM] EC50 (converted)); 6.76 µM in the data set with MDA-MB-231 cells [12]. Also, the “concentration at which cytotoxicity was significant” value in the data set with HS-5 cells (human, 48 h) was 20 µM. For the same compound, the “apoptosis (cell surface annexin V expression)” value with Rosi cells [9] and in the data set on MDA-MB-231 cells [10] was “induced apoptosis” each time. In addition, in the data set with MCF7 cells [11] (MCF7, concentrations tested 50-0.31 μM, 48 hours), the inhibition of survival entry is “Neither LB-100 nor Compound 2 significantly inhibited survival”. Further, the cell cycle effect entry with Rosi cells [13] is given as “induced G2/M-phase arrest”; with MCF7 cells [14], “induced G0/G1 arrest”; in the data set on MDA-MB-231 cells [15], “induced G2/M-phase arrest”.
